target: T1, androgen receptor (AR) (Homo sapiens, UniProt P10275, T878A); assay: Androgen-induced PSA (6.1 kb)-luciferase reporter assay in LNCaP cells (R1881 1 nM); format: cell-based; design: endogenous in cells; host or cells: LNCaP; conditions: 24 h, read-out: PSA-Luc IC50 Range
T1 sequence (P10275 1-920 T878A): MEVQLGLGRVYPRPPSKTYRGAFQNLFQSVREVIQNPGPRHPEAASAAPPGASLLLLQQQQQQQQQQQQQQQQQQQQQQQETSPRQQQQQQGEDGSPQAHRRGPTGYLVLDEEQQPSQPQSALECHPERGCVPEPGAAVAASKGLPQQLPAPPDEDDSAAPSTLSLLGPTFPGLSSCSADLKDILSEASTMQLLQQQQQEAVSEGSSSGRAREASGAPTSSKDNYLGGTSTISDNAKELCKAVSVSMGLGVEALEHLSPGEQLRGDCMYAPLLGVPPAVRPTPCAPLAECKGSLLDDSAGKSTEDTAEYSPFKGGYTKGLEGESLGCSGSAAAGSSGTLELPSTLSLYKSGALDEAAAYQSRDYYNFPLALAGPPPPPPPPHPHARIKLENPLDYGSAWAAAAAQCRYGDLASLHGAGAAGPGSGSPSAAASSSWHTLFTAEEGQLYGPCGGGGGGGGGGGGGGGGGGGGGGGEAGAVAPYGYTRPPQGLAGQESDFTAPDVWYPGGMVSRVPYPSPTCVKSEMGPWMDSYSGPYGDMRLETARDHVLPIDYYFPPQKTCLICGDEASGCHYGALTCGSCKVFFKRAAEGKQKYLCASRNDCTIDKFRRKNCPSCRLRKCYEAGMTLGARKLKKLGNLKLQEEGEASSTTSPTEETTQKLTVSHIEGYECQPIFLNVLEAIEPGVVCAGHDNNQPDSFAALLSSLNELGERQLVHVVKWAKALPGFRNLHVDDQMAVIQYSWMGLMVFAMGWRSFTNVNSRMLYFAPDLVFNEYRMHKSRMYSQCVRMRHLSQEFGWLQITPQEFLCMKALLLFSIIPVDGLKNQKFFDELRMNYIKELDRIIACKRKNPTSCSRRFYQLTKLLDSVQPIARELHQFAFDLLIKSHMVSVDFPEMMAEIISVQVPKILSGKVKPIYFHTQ
Procedure: The PSA (6.1 kb)-luciferase reporter contains functional AREs (androgen response elements) to which AR binds in response to androgen to induce luciferase activity. LNCaP cells were transiently transfected with the PSA (6.1 kb)-luciferase reporter for 24 h, and then pretreated with vehicle (DMSO) or indicated concentration of representative compounds for one hour prior to the addition of synthetic androgen, R1881 (1 nM). After 24 h of incubation with R1881, the cells were harvested, and relative luciferase activities were determined (FIG. 1). To determine the IC50, treatments were normalized to vehicle control activity induced by R1881 (Table 2).
Luciferase Assay: Cells were lysed using Passive Lysis Buffer (Promega) and then collected into V-bottom 96-well tissue culture plates. Lysates were centrifuged at 4° C. for 5 minutes at 3000 rpm. To measure luminescence of LNCaP cell lysates the Firefly Luciferase Assay System (Promega) was employed, according to manufacturer's protocol. Relative luminescence units (RLU) in cell lysates were detected for 10 seconds using Promega GloMax-Multi Detection Luminometer (Promega). Values were normalized to protein content. GraphPad Prism graphing software was used to calculate IC50 values.
Statistical analyses were performed using GraphPad Prism (Version 6.01 for Windows; La Jolla, Calif., USA). Comparisons between treatment and control groups were compared using Two-Way ANOVA with post-hoc Dunnett's and Tukey's tests. Differences were considered statistically significant at P values less than 0.05.

SMILES | IC50
CS(=O)(=O)Nc1ncc(Cn2cc3ccc(-c4cc(Cl)c(OCCCl)c(C#N)c4)cc3n2)cn1 [Compound A160] | > 2000 nM
CC(C)(c1ccc(-c2cnc3c(NS(C)(=O)=O)nccc3c2)cc1)c1cc(Cl)c(OCCCl)c(C#N)c1 [Compound A199] | < 500 nM
CS(=O)(=O)Nc1nccc(COc2ccc(-n3ccc4c(Cl)c(OCCCl)c(C#N)cc43)cc2)n1 [Compound A26] | > 2000 nM
CS(=O)(=O)N1CCC2(CCC2Oc2ccc3c(ccn3-c3cc(Cl)c(OCCCl)c(C#N)c3)c2)CC1 (stereo not shown) [Compound A222] | 500 to 2000 nM
CS(=O)(=O)N[C@@H]1CC[C@H](Oc2ccc3c(ccn3-c3cc(Cl)c(OCCCl)c(C#N)c3)c2)C1 [Compound A233] | 500 to 2000 nM
CS(=O)(=O)N1CCC(CCOc2ccc3c(ccn3-c3cc(Cl)c(OCCCl)c(C#N)c3)c2)CC1 [Compound A190] | > 2000 nM
CC(C)(c1ccc(OCc2cncc(NS(C)(=O)=O)c2)cc1)c1cc(Cl)c(OCCCl)c(C#N)c1 [Compound A49] | 500 to 2000 nM
Cn1nc(NS(C)(=O)=O)cc1COc1ccc(C(C)(C)c2cc(Cl)c(OCCCl)c(C#N)c2)cc1 [Compound A93] | 500 to 2000 nM
COc1c(Cl)cc(C2CCc3cc(-c4ccc5nc(NS(C)(=O)=O)cnc5c4)ccc32)cc1C#N (stereo not shown) [Compound A276] | 500 to 2000 nM
CS(=O)(=O)N[C@H]1C[C@H](COc2ccc3c(c2)CCC3c2cc(Cl)c(OCCCl)c(C#N)c2)C1 (stereo partly shown) [Compound A266] | 500 to 2000 nM
CS(=O)(=O)Nc1nccc(COc2ccc3c(c2)C(c2cc(Cl)c(OCCCl)c(C#N)c2)CC3)n1 (stereo not shown) [Compound A31, N-(4-(((3-(3-chloro-4-(2-chloroethoxy)-5-cyanophenyl)-2,3-dihydro-1H-inden-5-yl)oxy)methyl)pyrimidin-2-yl)methanesulfonamide] | > 2000 nM
CC(C)(c1ccc(OCc2cccc(S(N)(=O)=O)c2)cc1)c1cc(Cl)c(OCCCl)c(C#N)c1 [Compound A50] | 500 to 2000 nM
CC(C)(c1ccc(OCC23CC(C2)N(S(C)(=O)=O)C3)cc1)c1cc(Cl)c(OCCCl)c(C#N)c1 [Compound A285] | 500 to 2000 nM
CS(=O)(=O)Nc1cnn(CCc2ccc3c(ccn3-c3cc(Cl)c(OCCCl)c(C#N)c3)c2)c1 [Compound A84] | > 2000 nM
CS(=O)(=O)N1C[C@H]2C[C@@H](Oc3ccc4c(ccn4-c4cc(Cl)c(OCCCl)c(C#N)c4)c3)C[C@H]2C1 [Compound A221] | 500 to 2000 nM
CC(C)(c1ccc(OCc2ncncc2N)cc1)c1cc(Cl)c(OCCCl)c(C#N)c1 [Compound A98] | 500 to 2000 nM
CS(=O)(=O)N1CCN(CCOc2ccc3c(ccn3-c3cc(Cl)c(OCCCl)c(C#N)c3)c2)CC1 [Compound A206] | 500 to 2000 nM
CC(C)(c1ccc(-c2cnc3nc(NS(C)(=O)=O)ncc3c2)cc1)c1cc(Cl)c(OCCCl)c(C#N)c1 [Compound A192] | 500 to 2000 nM
CC1CN(c2c(F)cc(C(C)(C)c3ccc(OCc4ccnc(NS(C)(=O)=O)n4)cc3)cc2C#N)C1 [Compound A252] | 500 to 2000 nM
CS(=O)(=O)N1CCC[C@@H]1COc1ccc2c(ccn2-c2cc(Cl)c(OCCCl)c(C#N)c2)c1 [Compound A224] | 500 to 2000 nM
CS(=O)(=O)Nc1ncc2c(n1)CN(Cc1ccc3c(ccn3-c3cc(Cl)c(OCCCl)c(C#N)c3)c1)CC2 [Compound A153] | > 2000 nM
CS(=O)(=O)Nc1nccc(COc2ccc3c(-c4cc(Cl)c(OCCCl)c(C#N)c4)cnn3c2)n1 [Compound A64] | > 2000 nM
CS(=O)(=O)NC1(CCOc2ccc3c(ccn3-c3cc(Cl)c(OCCCl)c(C#N)c3)c2)CC1 [Compound A227] | 500 to 2000 nM
CC(C)(c1ccc(-c2n[nH]c3nc(NS(C)(=O)=O)ncc23)cc1)c1cc(Cl)c(OCCCl)c(C#N)c1 [Compound A203] | 500 to 2000 nM
CS(=O)(=O)Nc1nccc(COc2ccc3c(c2)nnn3-c2cc(Cl)c(OCCCl)c(C#N)c2)n1 [Compound A40] | > 2000 nM
CC(C)(c1ccc(OCc2ccnc(NS(C)(=O)=O)n2)cc1)c1cc(F)c(N2CC(CO)C2)c(C#N)c1 [Compound A253] | > 2000 nM

SMILES | IC50
CS(=O)(=O)Nc1ncc2ccc(COc3cccc(-c4cc(Cl)c(OCCCl)c(C#N)c4)c3)cc2n1 [Compound A152] | > 2000 nM
CC(C)(c1ccc(-c2cnc3nc(NS(C)(=O)=O)oc3c2)cc1)c1cc(Cl)c(OCCCl)c(C#N)c1 [Compound A257] | > 2000 nM
CC(C)(c1ccc(OCc2cnc(NS(C)(=O)=O)nc2N2CCCCC2)cc1)c1cc(Cl)c(OCCCl)c(C#N)c1 [Compound A99] | 500 to 2000 nM
CC(C)(c1ccc(OCc2ccnc(NS(C)(=O)=O)n2)cc1)c1cc(F)c(N2CC(O)C2)c(C#N)c1 [Compound A259] | < 500 nM
CC(C)(c1ccc(OCc2ccnc(NS(C)(=O)=O)n2)cc1)c1cnc(N2CC3(CCC3)C2)c(Cl)c1 [Compound A106] | > 2000 nM
CC(C)(c1ccc(OCC23CCN(S(C)(=O)=O)C(C2)C3)cc1)c1cc(Cl)c(OCCCl)c(C#N)c1 [Compound A284] | 500 to 2000 nM
CS(=O)(=O)N[C@H]1CC[C@@H](Oc2ccc3c(ccn3-c3cc(Cl)c(OCCCl)c(C#N)c3)c2)C1 [Compound A226] | 500 to 2000 nM
CC(C)(c1ccc(OCc2nccnc2N)cc1)c1cc(Cl)c(OCCCl)c(C#N)c1 [Compound A95] | < 500 nM
CS(=O)(=O)Nc1ncc(COc2ccc3c(ccn3-c3cc(Cl)c(OCCCl)c(C#N)c3)c2)c(N)n1 [Compound A10] | > 2000 nM
CS(=O)(=O)Nc1nccc(COc2ccc(-n3ccc4c(C#N)c(OCCCl)c(Cl)cc43)cc2)n1 [Compound A27] | 500 to 2000 nM
CS(=O)(=O)N1CCC12CN(CCc1ccc3c(ccn3-c3cc(Cl)c(OCCCl)c(C#N)c3)c1)C2 [Compound A249] | > 2000 nM
CC(C)(c1ccc(OCc2ccnc(NS(C)(=O)=O)n2)cc1)c1cc(Cl)c(-c2cccc(Cl)c2)c(C#N)c1 [Compound A1] | > 2000 nM
CC(C)(c1ccc(OCc2ccnc(NS(C)(=O)=O)n2)cc1)c1cc(Cl)c(N2CCOCC2)c(C#N)c1 [Compound A283] | 500 to 2000 nM
CS(=O)(=O)N1CCC(COc2ccc3c(ccn3-c3cc(Cl)c(OCCCl)c(C#N)c3)c2)C1 (stereo not shown) [Compound A210] | 500 to 2000 nM
CC(C)(c1ccc(OCc2ccnc(NS(C)(=O)=O)n2)cc1)c1cc(F)c(N2CCC2)c(C#N)c1 [Compound A251] | 500 to 2000 nM
CS(=O)(=O)Nc1cc(NCc2ccc3c(ccn3-c3cc(Cl)c(OCCCl)c(C#N)c3)c2)ccn1 [Compound A78] | > 2000 nM
CC(C)(c1ccc(OCc2ccnc(NS(C)(=O)=O)n2)c(Cl)c1)c1cc(Cl)c(OCCCl)c(C#N)c1 [Compound A102] | 500 to 2000 nM
CC(C)(c1ccc(-c2cc3cnc(NS(C)(=O)=O)nn3c2)cc1)c1cc(Cl)c(OCCCl)c(C#N)c1 [Compound A263] | > 2000 nM
CS(=O)(=O)N1CCCC(COc2ccc3c(ccn3-c3cc(Cl)c(OCCCl)c(C#N)c3)c2)C1 (stereo not shown) [Compound A56] | 500 to 2000 nM
Cc1cc(-c2ccc3c(ccn3-c3cc(Cl)c(OCCCl)c(C#N)c3)c2)ccc1CNS(C)(=O)=O [Compound A168] | < 500 nM
CS(=O)(=O)Nc1nccc(COc2ccc3c(c2)CC[C@H]3c2cc(Cl)c(OCCCl)c(C#N)c2)n1 [A35(S)] | 500 to 2000 nM
CC(C)(c1ccc(-c2cnc3nc(NS(C)(=O)=O)cnc3c2)cc1)c1cc(Cl)c(OCCCl)c(C#N)c1 [Compound A195] | > 2000 nM
CS(=O)(=O)N1CCC(Oc2ccc3c(ccn3-c3cc(Cl)c(OCCCl)c(C#N)c3)c2)CC1 [Compound A200] | 500 to 2000 nM
CS(=O)(=O)NC1CC2(C1)CN(Cc1ccc3c(ccn3-c3cc(Cl)c(OCCCl)c(C#N)c3)c1)C2 [Compound A171] | > 2000 nM
CC1(NS(C)(=O)=O)CCN(Cc2ccc3c(ccn3-c3cc(Cl)c(OCCCl)c(C#N)c3)c2)CC1 [Compound A238] | > 2000 nM
CC(C)(c1ccc(-c2cnc3nc(NS(C)(=O)=O)ccc3n2)cc1)c1cc(Cl)c(OCCCl)c(C#N)c1 [Compound A279] | 500 to 2000 nM

Source: patent publication US20220380378A1 (ESSA Pharma, Inc., priority 2021, published 2022)
